Test results from US20080260834A1, “VITAMIN D3 ANALOG LOADED POLYMER FORMULATIONS FOR CANCER AND NEURODEGENERATIVE DISORDERS” (priority 2002, published 2008).
Read-outs that look alike come from different tables or passages of the source.

What was measured:
[1] = tested on: B16 (malignant melanoma); experiment: In vitro proliferation assay, B16; format: cell-based, murine
Experimental: (§1) All cell lines were grown and propagated in RPMI medium at 37° C. in 5% CO2. Cultured cells were trypsinized and plated in triplicate at 10,000 cells/well in Falcon 24 well tissue culture plates. […] When control wells neared confluence, cell number was determined for each well as an average of two readings on a ZM Coulter Counter Results are expressed as the average cell number for each drug treatment group divided by the average cell number for the drug free control group (designated as % OF CONTROL) vs. the concentration of drug or analog.

[2] = tested on: RENCA (renal cell carcinoma); experiment: In vitro proliferation assay, RENCA; format: cell-based, murine
Experimental: as §1

[3] = tested on: EMT6 (breast cell carcinoma); experiment: In vitro proliferation assay, EMT6; format: cell-based, murine
Experimental: as §1

[4] = tested on: CT26 (colon carcinoma); experiment: In vitro proliferation assay, CT26; format: cell-based, murine; conditions: at 1000 nM against CT26 (p<0.01, data not shown)
Experimental: as §1

[5] = tested on: B16 melanoma cells; experiment: Exposure time dependence study, B16; format: cell-based, murine; conditions: 10 μM; exposure 1, 2, 10, 24, 96 hours; counted at 96 hours
Experimental: In a series of exposure time dependence studies, B16 melanoma cells were trypsinized, suspended, and plated as before. […] Then at 1, 2, 10, 24, and 96 hours, the drug containing media was removed and replaced with fresh media containing only solvent. […] At the 96 hour time point, all groups were trypsinized and cell number was determined as before.

[6] = Calcemic activity, daily intraperitoneal injections in mice; format: in vivo, C57/B16 mice; conditions: for weight loss: 7 days; for blood ionized calcium: day 7
Experimental: Twenty-seven C57/B16 mice (n=3 per group), received daily intraperitoneal injections solution containing one of the three drugs at on of the following doses: […] (corresponding to 0.02, 0.2, or 2 mg/day respectively). Nine animals received daily intraperitoneal injections of solvent only to serve as control. Animal weights were monitored daily at the time of injection. On day 7, all animals were sacrificed and blood was collected via cardiac puncture and quantitatively analyzed for ionized calcium content at the Critical Care Lab at Johns Hopkins Hospital.

[7] = Hypercalcemic toxicity of wafers, intraflank vs intracranial; format: in vivo,  mice; conditions: 5 mg pCPP:SA wafer loaded 0.1%; for weight loss: 7 days; for blood ionized calcium levels: day 7
Excerpt: Animal weights were monitored daily and blood was collected for quantitative ionized calcium analysis via cardiac puncture on day 7 post-implantation.

[8] = cited from earlier work

In the case of C=C1/C(=C\C=C2/CCCC3(C)[C@@H]([C@H](C)CCCC(C)(C)O)CC[C@@H]23)C[C@@H](O)CC1O (some centres unmarked) [1,25 D3, 1,25-Dihydroxyvitamin D3], the EC50 ([1]; Mus musculus) is reported as 15 nM, the antiproliferative activity ([1]; at 10 nM against B16 (p<0.03)) is reported as “significant antiproliferative activity” and the EC50 ([2]; Mus musculus, Renca) is reported as 153 nM. The antiproliferative activity ([2]; at 10 nM against RENCA (p<0.03)) was “significant antiproliferative activity”, the EC50 ([3]; Mus musculus, EMT6) was 160 nM and the antiproliferative activity ([3]; at 100 nM against EMT6 (p<0.01)) was “significant antiproliferative activity”. For the same compound, the antiproliferative activity [4] was “significant antiproliferative activity”, the “exposure time dependence of antiproliferative activity” value [5] was “exposure time dependent” and the weight loss ([6]; 1 mg/kg/day i.p.) was “substantial weight loss”. For the same compound, the blood ionized calcium ([6]; 1 mg/kg/day i.p.) was “dramatic rises in blood ionized calcium levels”, the weight loss ([6]; 10 mg/kg/day i.p.) was “substantial weight loss” and the blood ionized calcium ([6]; 10 mg/kg/day i.p.) was “dramatic rises in blood ionized calcium levels”. The “condition of the animals” value ([6]; 100 mg/kg/day i.p.) was “severely compromised”, the weight loss ([7]; intracranial) was “substantial weight loss” and the “blood ionized calcium levels” value ([7]; intracranial) was “dramatic rises in blood ionized calcium levels”. The weight loss ([7]; intraflank) was “substantial weight loss”, the “blood ionized calcium levels” value ([7]; intraflank) was “dramatic rises in blood ionized calcium levels” and the serum calcium ([8]; 60 ng/day i.c.v., after 6 days) was “rise in serum calcium”. The weight loss ([8]; 120 ng/day i.c.v.) was “weight loss was observed” and the “condition of the animals” value ([8]; 240 ng/day i.c.v., by day 6) was “severely compromised”.
